Patent publication US20250163032A1, “NOVEL MOLECULES AS INHIBITORS OF DNA DAMAGE REPAIR PATHWAY” (VRise Therapeutics, Inc., priority 2023, published 2025)

Legend:
MD-MBA-436 = experiment: Cell viability assay (CTG assay); assay type: cell-based, human; settings: Homo sapiens, 7th day
Method: Test 5: Cell Viability Assay (CTG Assay):
Growth inhibition assays was carried out using […] supplemented media. Cells were seeded at a desired concentration of 1000-6,000 cells/well in a well plate with desired number of wells. Test compounds at a desired concentration range were added after 24 hours. Growth was assessed using the Cell Titer-Glo (CTG, Cell Signaling) for measuring reduction at 7th day after the addition of test compound chemiluminescence values were read by a plate reader. Data was be analysed and percent inhibition and/or IC50 for each test compound is calculated accordingly.

[1] = Metabolic stability, human liver microsomes; assay type: in vitro ADME; settings: pH 7.4, 1 μM test item, 1 mM NADPH, 60 minutes
Method: (§1) Test-8: Metabolic Stability
(§2) Metabolic stability studies were conducted using mouse, rat, and human liver microsomes. The protocol for the studies with mouse and human liver microsomes (Gibco-Thermo) is provided below.
(§3) In brief, 0.25 mg protein was preincubated in phosphate buffer (pH˜7.4) for 5 min at 37° C. and then added with 1 μM test item followed by addition of 1 mM NADPH (cof actor) and incubated further over a period 60 minutes in duplicate. The reaction mixture was terminated with acetonitrile containing an internal standard and centrifuged further to analyse the test item remaining in the supernatant by LC-MS/MS at different intervals. The percent parent compound remaining was calculated in comparison with similar samples terminated at 0 minutes.

USP1/UAF1 = USP1/UAF1 (Homo sapiens, UniProt O94782); experiment: USP1/UAF 1 assay (ubiquitin-rhodamine110 fluorometric deubiquitinase assay); assay type: biochemical; settings: for IC50: 1 nM USP1/UAF1, 150 nM Ub-Rho, read-out: Biochemical assay IC50; for inhibition at 1 µM: read-out: Biochemical assay % inhibition @1 μM; for inhibition at 10 µM: read-out: Biochemical assay % inhibition @10 μM
Method: Test-1: USP1/UAF 1 Assay:
Deubiquitinase activity of USP1/UAF1 was monitored in a fluorometric assay using ubiquitin-rhodamine110 as substrate. Briefly, enzymatic reactions were conducted in an assay buffer composed of 50 mM HEPES, pH 7.8, 0.5 mM EDTA, 100 mM NaCl, 1 mM TCEP, 0.1 mg/mL BSA, and 0.01% Tween-20 that contained 1 nM USP1/UAF1. Compounds were tested at desired concentrations. The plates were incubated for 15 min to attain equilibrium, and then the enzymatic reaction was initiated by dispensing 150 nM Ub-Rho solution. Fluorescence measurement was performed in a high throughput CCD imager, where kinetic measurements of rhodamine fluorescence were acquired using a 480 nm excitation/540 nm emission filter set. The change in fluorescence intensity over a 5-minute reaction period (typically associated with less than 10% substrate conversion) was normalized against no-inhibitor and no-enzyme controls and the resulting percent inhibition data were fitted to a sigmoidal dose response using a four-parameter Hill equation. Data was be analysed and percent inhibition and/or IC50 for each test compound is calculated accordingly.

[2] = Metabolic stability, mouse liver microsomes; assay type: in vitro ADME; settings: pH 7.4, 1 μM test item, 1 mM NADPH, 60 minutes
Method: as §1, §2, §3

NCI-H1792 = experiment: Cell viability assay (MTT assay), NCI-H1792; assay type: cell-based; settings: Homo sapiens, tested at 10 uM, 168 hours (Test-3)
Method: Test-3: Cell Viability Assay (MTT Assay):
Cell viability assay was carried out using 10% FBS supplemented media. Cells were seeded at desired density in 96 well plate and incubated in a humidified CO2 incubator. After 24 hours of plating, test compounds at desired concentration range were added to the plates and incubated in the CO2 incubator for 168 hours. Post 168 hrs treatment, 12.5 μL of MTT was added to all wells including DMSO control. MTT treated plates were incubated further for 3 hours and MTT crystals were dissolved using 125 μL of DMSO. Absorbance was read on a BIO-RAD iMark Microplate plate reader at a wavelength of 570 nm. Data was analysed and percent inhibition (IC50) due to the test compound compared to the control was calculated using GraphPad Prism.

USP1/UAF1, sequence (O94782 whole entry): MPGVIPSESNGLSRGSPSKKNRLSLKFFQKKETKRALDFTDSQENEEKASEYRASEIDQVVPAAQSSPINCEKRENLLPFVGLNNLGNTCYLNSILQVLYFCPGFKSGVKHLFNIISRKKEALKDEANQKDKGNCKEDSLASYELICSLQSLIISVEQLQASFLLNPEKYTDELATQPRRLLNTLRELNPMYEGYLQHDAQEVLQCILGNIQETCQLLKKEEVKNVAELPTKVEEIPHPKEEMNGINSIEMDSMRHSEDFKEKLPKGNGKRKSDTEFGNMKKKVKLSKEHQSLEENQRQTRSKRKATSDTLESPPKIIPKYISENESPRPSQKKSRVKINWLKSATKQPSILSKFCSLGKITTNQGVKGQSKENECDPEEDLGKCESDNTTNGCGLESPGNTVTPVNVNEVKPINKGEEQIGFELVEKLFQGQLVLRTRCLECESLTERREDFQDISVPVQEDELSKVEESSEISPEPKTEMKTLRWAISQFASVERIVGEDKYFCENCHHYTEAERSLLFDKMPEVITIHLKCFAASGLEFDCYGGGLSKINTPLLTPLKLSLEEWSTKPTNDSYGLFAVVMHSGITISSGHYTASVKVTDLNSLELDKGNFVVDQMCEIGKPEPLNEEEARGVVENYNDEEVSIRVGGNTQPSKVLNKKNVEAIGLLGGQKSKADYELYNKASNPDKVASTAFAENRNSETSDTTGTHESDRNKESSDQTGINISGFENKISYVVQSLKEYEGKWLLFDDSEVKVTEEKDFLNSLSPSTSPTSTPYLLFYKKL
USP1/UAF1, sequence (Q8TAF3 whole entry partner): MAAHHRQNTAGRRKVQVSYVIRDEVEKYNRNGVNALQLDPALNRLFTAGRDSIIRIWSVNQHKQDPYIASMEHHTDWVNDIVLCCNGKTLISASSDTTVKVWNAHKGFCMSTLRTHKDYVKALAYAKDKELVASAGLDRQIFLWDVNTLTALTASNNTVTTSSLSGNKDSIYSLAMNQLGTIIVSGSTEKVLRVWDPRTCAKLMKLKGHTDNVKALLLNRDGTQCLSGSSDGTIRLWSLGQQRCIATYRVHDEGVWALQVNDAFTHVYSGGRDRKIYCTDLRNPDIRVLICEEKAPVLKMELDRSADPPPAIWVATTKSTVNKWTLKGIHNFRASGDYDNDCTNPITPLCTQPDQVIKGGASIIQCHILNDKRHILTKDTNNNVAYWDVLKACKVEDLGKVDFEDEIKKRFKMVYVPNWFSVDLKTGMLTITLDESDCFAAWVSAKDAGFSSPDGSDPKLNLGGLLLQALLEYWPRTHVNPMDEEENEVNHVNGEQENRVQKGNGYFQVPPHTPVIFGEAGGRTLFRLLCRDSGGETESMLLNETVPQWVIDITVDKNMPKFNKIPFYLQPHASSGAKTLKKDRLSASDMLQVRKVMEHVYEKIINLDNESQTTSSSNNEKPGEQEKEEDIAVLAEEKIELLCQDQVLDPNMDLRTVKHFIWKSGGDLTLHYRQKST

Row | SMILES | inhibition at 10 µM (MD-MBA-436) [%] | half-life at 1 μM [1] [min] | IC50 (USP1/UAF1) [µM] | inhibition at 1 µM (USP1/UAF1) [%] | half-life at 1 μM [2] [min] | inhibition at 10 µM (NCI-H1792) [%] | IC50 (MD-MBA-436) [µM] | inhibition at 10 µM (USP1/UAF1) [%]
1 | COc1ncnc(C2CC2)c1-c1nc2c(c(NCc3ccc(-c4nc(C(F)(F)F)cn4C)cc3)c1C#N)CCC2 [Example 21, 2-(4-cyclopropyl-6-methoxypyrimidin-5-yl)-4-((4-(1-methyl-4-(trifluoromethyl)-1H-imidazol-2-yl)benzyl)amino)-6,7-dihydro-5H-cyclopenta[b]pyridine-3-carbonitriles] | 50 to 75 | 52.7 | 0.1 to 1 |  |  |  |  | 
2 | COc1ncnc(C2CC2)c1-c1nc2c(c(N(Cc3ccc(-c4nc(C(F)(F)F)cn4C)cc3)C(N)=O)n1)CCC2 [Example 12, 1-(2-(4-cyclopropyl-6-methoxypyrimidin-5-yl)-6,7-dihydro-5H-cyclopenta[d]pyrimidin-4-yl)-1-(4-(1-methyl-4-(trifluoromethyl)-1H-imidazol-2-yl)benzyl)urea] | 50 to 75 | 9 |  | > 75 | 40.2 |  |  | 
3 | COc1ncccc1-c1nc(NCc2ccc(-c3nc(C(F)(F)F)cn3C)cc2)c2ncn(C3CCCCO3)c2n1 (centres unmarked) [Example 31, 2-(2-methoxypyridin-3-yl)-N-(4-(1-methyl-4-(trifluoromethyl)-1H-imidazol-2-yl)benzyl)-9-(tetrahydro-2H-pyran-2-yl)-9H-purin-6-amine] |  |  |  |  |  | 25 to 50 |  | 
4 | COc1ncnc(C2CC2)c1-c1nc(NCc2ccc(-c3nc(C(F)(F)F)cn3C)cc2)c2c(c1C#N)CCC2 [Example 2, 3-(4-cyclopropyl-6-methoxypyrimidin-5-yl)-1-((4-(1-methyl-4-(trifluoromethyl)-1H-imidazol-2-yl)benzyl)amino)-6,7-dihydro-5H-cyclopenta[c]pyridine-4-carbonitrile] | 50 to 75 | 20.4 | 0.1 to 1 |  |  |  |  | 
5 | COc1ccncc1-c1nc(NCc2ccc(-c3nc(C(F)(F)F)cn3C)cc2)c2ncn(C3CCCCO3)c2n1 (centres unmarked) [Example 33, 2-(4-methoxypyridin-3-yl)-N-(4-(1-methyl-4-(trifluoromethyl)-1H-imidazol-2-yl)benzyl)-9-(tetrahydro-2H-pyran-2-yl)-9H-purin-6-amine] |  |  |  |  |  | 50 to 75 |  | 
6 | COc1ncnc(C2CC2)c1-c1nc(NCc2ccc(-c3nc(C(F)(F)F)cn3C)cc2)c2[nH]cnc2n1 [Example 16, 2-(4-cyclopropyl-6-methoxypyrimidin-5-yl)-N-(4-(1-methyl-4-(trifluoromethyl)-1H-imidazol-2-yl)benzyl)-7H-purin-6-amine] | 50 to 75 | ≥ 700 | 0.05 to 0.1 |  | ≥ 230 |  |  | 
7 | CC(C)c1ccccc1-c1nc2c(c(NCc3ccc(-c4nc(C(F)(F)F)cn4C)cc3)n1)CCC2 [Example 3, 2-(2-isopropylphenyl)-N-(4-(1-methyl-4-(trifluoromethyl)-1H-imidazol-2-yl)benzyl)-6,7-dihydro-5H-cyclopenta[d]pyrimidin-4-amine] |  | 14 | < 0.05 |  | 14.4 |  | < 0.05 | 
8 | COc1ncnc(C2CC2)c1-c1nc(OCc2ccc(-c3nc(C(F)(F)F)cn3C)cc2)c2[nH]cnc2n1 [Example 26, 2-(4-cyclopropyl-6-methoxypyrimidin-5-yl)-6-((4-(1-methyl-4-(trifluoromethyl)-1H-imidazol-2-yl)benzyl)oxy)-7H-purine] |  | 683 |  |  | 284 |  |  | > 75
9 | CC(C)c1ccccc1-c1nc(NCc2ccc(-c3nc(C(F)(F)F)cn3C)cc2)c2c(c1C#N)CCC2 [Example 4, 3-(2-isopropylphenyl)-1-((4-(1-methyl-4-(trifluoromethyl)-1H-imidazol-2-yl)benzyl)amino)-6,7-dihydro-5H-cyclopenta[c]pyridine-4-carbonitrile] |  | 7.13 | 0.05 to 0.1 |  | 7.71 |  | ≥ 1 | 
10 | COc1ncnc(C2CC2)c1-c1nc(NCc2ccc(-c3cccnc3)cc2)c2[nH]cnc2n1 [Example 76, 2-(4-cyclopropyl-6-methoxypyrimidin-5-yl)-N-(4-(pyridin-3-yl)benzyl)-7H-purin-6-amine] |  |  |  |  | 10.1 | 25 to 50 |  | 
11 | CC(C)c1ccccc1-c1nc2c(c(N(Cc3ccc(-c4nc(C(F)(F)F)cn4C(C)C)cc3)C(=O)N(C)C)n1)CCC2 [Example 14, 1-(4-(1-isopropyl-4-(trifluoromethyl)-1H-imidazol-2-yl)benzyl)-1-(2-(2-isopropylphenyl)-6,7-dihydro-5H-cyclopenta[d]pyrimidin-4-yl)-3,3-dimethylurea] |  | 3.21 |  | 25 to 50 |  |  |  | 
12 | Cc1cnc(-c2ccccc2C(C)C)nc1NCc1ccc(-n2ccnn2)cc1 [ML323, reference compound] |  | 30.3 |  |  | 7.58 |  |  | 
13 | COc1ncccc1-c1nc(NCc2ccc(-c3nc(C(F)(F)F)cn3C)cc2)c2[nH]cnc2n1 [Example 32, 2-(2-methoxypyridin-3-yl)-N-(4-(1-methyl-4-(trifluoromethyl)-1H-imidazol-2-yl)benzyl)-7H-purin-6-amine] |  |  |  |  |  | 50 to 75 |  | > 75
14 | COc1ncnc(C2CC2)c1-c1nc2c(c(OCc3ccc(-c4nc(C(F)(F)F)cn4C)cc3)n1)CCC2 [Example 24, 2-(4-cyclopropyl-6-methoxypyrimidin-5-yl)-4-((4-(1-methyl-4-(trifluoromethyl)-1H-imidazol-2-yl)benzyl)oxy)-6,7-dihydro-5H-cyclopenta[d]pyrimidine] | 75 to 100 | 227 |  |  | 22.6 |  |  | 
15 | COc1ncnc(C2CC2)c1-c1nc(NCc2ccc(-c3ccc(F)cn3)cc2)c2[nH]cnc2n1 [Example 77, 2-(4-cyclopropyl-6-methoxypyrimidin-5-yl)-N-(4-(5-fluoropyridin-2-yl)benzyl)-7H-purin-6-amine] |  |  |  |  |  | 50 to 75 |  | 
16 | COc1ncnc(C2CC2)c1-c1nc2c(c(NCc3ccc(-c4nc(C(F)(F)F)cn4C)cc3)n1)CCC2 [Example 1, 2-(4-cyclopropyl-6-methoxypyrimidin-5-yl)-N-(4-(1-methyl-4-(trifluoromethyl)-1H-imidazol-2-yl)benzyl)-6,7-dihydro-5H-cyclopenta[d]pyrimidin-4-amine] |  | 108 | 0.05 to 0.1 |  | 89.6 | 25 to 50 | < 0.05 | 
17 | COc1ncnc(C2CC2)c1-c1nc(NCc2ccc(-c3nc(C(F)(F)F)cn3C)cc2)c2cccn2n1 [Example 6, 2-(4-cyclopropyl-6-methoxypyrimidin-5-yl)-N-(4-(1-methyl-4-(trifluoromethyl)-1H-imidazol-2-yl)benzyl)pyrrolo[2,1-f][1,2,4]triazin-4-amine] |  | ≥ 300 | < 0.05 |  | ≥ 30 | 50 to 75 | < 0.05 | 
18 | COc1ncnc(C2CC2)c1-c1nc2c(c(NCc3ccc(-c4nc(C(F)(F)F)cn4C(C)C)cc3)n1)CCC2 [Example 10, 2-(4-cyclopropyl-6-methoxypyrimidin-5-yl)-N-(4-(1-isopropyl-4-(trifluoromethyl)-1H-imidazol-2-yl)benzyl)-6,7-dihydro-5H-cyclopenta[d]pyrimidin-4-amine] |  | 134 | < 0.05 |  | 47 |  | < 0.05 | 
